Laboratory results from patent US20240342166A1, “PHARMACEUTICAL COMPOSITION FOR PREVENTING OR TREATING TUMOR, AND USE THEREOF” (TIUMBIO CO., LTD., priority 2021, published 2024).

Assays:
[1] = system: CT26 cell lines (Murine colon cancer cells); experiment: Colorectal cancer mouse model (Example 2); type: in vivo; conditions: Day 26 from the drug administration date; groups without anti-CTLA-4 antibody; Compound 1 50 mg/kg twice a day p.o.; anti-PD-1 antibody 10 mg/kg once every three days i.p.; lenvatinib 10 mg/kg p.o.
Description: 170 female BALB/C mice, which were 6-8 weeks old, were purchased from OrientBio, and cancer cell lines were transplanted by subcutaneously injecting 7.5×10^5 CT26 cell lines (Murine colon cancer cells) into the right flank of each mouse.
The mice selected in Example 2.1 were assigned to the groups listed in Table 4 below, and vehicles or drugs were administered, and drug administration was initiated on Day 7 from the cell line inoculation date, and the study was terminated on Day 27 from the drug administration date.
In this case, the mouse tumor volume was calculated by the same method as the tumor volume calculation method of Example 1.1.2.
Tumor volume changes and weight changes for each group were statistically analyzed using Two-way ANOVA test, Bonferroni test, and one-tailed t-test.

[2] = system: WEHI-164 cell lines (Murine sarcoma cells); experiment: Sarcoma mouse model (Example 3); type: in vivo; conditions: Compound 1 50 mg/kg twice a day p.o.
Description: (§1) 60 female BALB/C mice, 6-8 weeks old, were purchased from Vital River Laboratories Research Model and Services Company.
Drugs were administered from Day 7 to Day 23 from the WEHI-164 cell line transplantation date.
The difference in tumor volumes during the study period was statistically analyzed using one-tailed t-test, ANOVA and Tukey's multiple comparison test.

[3] = system: human peripheral blood mononuclear cells (hPBMCs); experiment: In vitro IFN-γ secretion in TGF-β-inhibited, anti-CD3/anti-CD28-stimulated hPBMCs (ELISA); type: cell-based; conditions: treated with anti-CD3 antibodies, anti-CD28 antibodies and TGF-β; stimulated for 72 hours; IFN-γ ELISA of supernatants
Description: A 6-well plate was coated with anti-CD3 monoclonal antibodies (OKT3) at 4° C. overnight. Each well of the 6-well plate was suctioned with an antibody solution, and washed using PBS. hPBMCs were plated on the coated 6-well plate. In order to increase the reactivity of hPBMCs, culturing was performed for 5 days under the conditions of 37° C., 5% carbon dioxide humidification incubator. The hPBMCs cultured for 5 days were inoculated in a 96-well plate at a concentration of 1×10^5 cells/well. The hPBMCs inoculated in the 96-well plate were treated with lenvatinib or Compound 1 and the hPBMCs were incubated for 1 hour, then TGF-β was added thereto and the hPBMCs were cultured for 1 hour. […] After 72 hours, the supernatants were recovered and conventional IFN-γ ELISA was performed. The IFN-γ content generated for each group was measured. Data analysis was performed using Prism 5 (GraphPad Software, Inc.), and statistical analysis was performed using One-way ANOVA and Tukey's multiple comparison.

[4] = system: 4T1 cell lines (Murine breast cancer cells); experiment: Breast cancer mouse model (Example 4); type: in vivo; conditions: Day 23 from the cell line inoculation date; Compound 1 50 mg/kg twice a day p.o.; anti-PD-1 or anti-CTLA-4 antibody 10 mg/kg every three days i.p.
Excerpt: as §1
The difference in tumor volumes was statistically analyzed using ANOVA and Tukey's multiple comparison test.

B16F10 cell lines = experiment: Melanoma mouse model, anti-PD-1 antibody and Compound 1 (Example 1.1); type: in vivo; conditions: Day 15 from the drug administration date; C57BL/6 mice; Compound 1 50 mg/kg twice a day p.o.; anti-PD-1 antibody 10 mg/kg once every three days i.p.
Excerpt: 40 female C57BL/6 mice, which were 6-8 weeks old, were purchased from OrientBio, and 1×10^6 B16F10 cell lines (KCLB, #80008) were subcutaneously injected into the right flank of each mouse, thereby transplanting the cancer cell lines thereto.
The mice were classified according to the mean and deviation of the tumor volume on Day 9.
A change in tumor volume for each group was statistically analyzed using Two-way ANOVA test.

[5] = system: MBT2 cell lines (Murine bladder cancer cells); experiment: Bladder cancer mouse model (Example 5); conditions: tumor volume on Day 30 from the cell line inoculation date; responder = tumor volume less than 1/4 of 1,500 mm^3; Compound 1 alone 15 mg/kg twice a day, in combination 50 mg/kg twice a day p.o.; anti-PD-1 antibody 12.5 mg/kg twice a week i.p.
Description: C3H/HeN female mice, 7 weeks old, were purchased from OrientBio. 2.5×10^5 MBT2 cell lines (Murine bladder cancer cells) were injected subcutaneously into the right flank of each mouse to transplant a cancer cell line. The MBT2 cell line transplantation date was determined as Day 0, and the tumor volume was measured on Day 6.
A 0.9% physiological saline solution was prepared as a vehicle, and a mixed solution of an anti-PD-1 antibody (BioXCell) and PBS, and a mixed solution of Compound 1 and the vehicle were prepared as study drugs.
The mice selected in Example 5.1 were assigned to a control group, a group in which an anti-PD-1 antibody was administered, a group in which Compound 1 was administered, or a group in which Compound 1 was administered in combination with an anti-PD-1 antibody, respectively. Drugs were administered from Day 6 to Day 28 from the MBT2 cell line transplantation date.
The mouse tumor volume and weight were measured three times a week during the study period after the drug administration. The tumor volume was measured by the same method as the method for measuring the tumor volume in Example 1.1.2.

| Compound | drop in tumor volume compared to the tumor volume of the control group (vehicle) [1] | complete remission rate of the tumor ([2]; anti-CTLA-4 antibody 10 mg/kg once a week i.p., compared to the vehicle control group) | tumor volume smaller than the tumor volume of the control group ([2]; Day 16 from the drug administration initiation date, anti-PD-1 antibody 10 mg/kg once a week i.p.) | secretion of IFNγ in human PBMCs [3] | tumor volume reduced compared to the tumor volume of the control group [4] | tumor volume lower than the tumor volume measured in the control group (B16F10 cell lines) | Response individual ratio (percent) [5] | Response individual ratio (responders/mice) [5] |
| --- | --- | --- | --- | --- | --- | --- | --- | --- |
| Cc1cccc(-c2nc3n(c2-c2ccc4ncnn4c2)CCN3)n1.O=P(O)(O)O [Compound 1, 6-(6-(6-methylpyridine-2-yl)-2,3-dihydro-1H-imidazo[1,2-a]imidazol-5-yl)-[1,2,4]triazole[1,5-a]pyridine phosphate] | 59% | 30% | 71% | increased secretion of IFNγ | 16% | 44% | 9% | 1/11 |
| COc1cc2nccc(Oc3ccc(NC(=O)NC4CC4)c(Cl)c3)c2cc1C(N)=O [lenvatinib, reference compound] | 30% | – | – | increased secretion of IFNγ | – | – | – | – |
